ChEMBL document CHEMBL4251555, “Synthesis, antitumor evaluation and microarray study of some new pyrazolo[3,4-d][1,2,3]triazine derivatives” (Eur J Med Chem, 2017)

Legend:
[1] = tested on: Huh-7; experiment: Cytotoxicity against human HuH7 cells after 48 hrs by resazurin assay; assay type: functional, cell-based; details: Huh-7, 48 h
[2] = tested on: PANC-1; experiment: Cytotoxicity against human PANC1 cells after 48 hrs by resazurin assay; assay type: functional, cell-based; details: PANC-1, 48 h
[3] = tested on: CCRF-CEM; experiment: Cytotoxicity against human CCRF-CEM cells after 48 hrs by resazurin assay; assay type: functional, cell-based
[4] = tested on: TERT-RPE1; experiment: Cytotoxicity against human RPE1 cells after 48 hrs by resazurin assay; assay type: cell-based; details: RPE-1, 48 h
[5] = Selectivity index, ratio of IC50 for human RPE1 cells to IC50 for human HuH7 cells; assay type: toxicity; details: RPE1 cells versus HuH7 cells, read-out: Ratio IC50
[6] = Selectivity index, ratio of IC50 for human RPE1 cells to IC50 for human PANC1 cells; assay type: toxicity; details: RPE1 cells versus PANC1 cells, read-out: Ratio IC50
[7] = Selectivity index, ratio of IC50 for human RPE1 cells to IC50 for human CCRF-CEM cells; assay type: toxicity; details: RPE1 cells versus CCRF-CEM cells, read-out: Ratio IC50
[8] = tested on: Huh-7; experiment: Induction of apoptosis in human HuH7 cells assessed as caspase-3/7 activation after 24 hrs by Caspase-Glo assay; assay type: functional, cell-based
[9] = tested on: PANC-1; experiment: Induction of apoptosis in human PANC1 cells assessed as caspase-3/7 activation after 24 hrs by Caspase-Glo assay; assay type: functional, cell-based
[10] = tested on: Huh-7; experiment: Upregulation of SLC26A3 gene expression in human HuH7 cells after 48 hrs by micro-array analysis relative to control; assay type: functional
[11] = tested on: Huh-7; experiment: Upregulation of UGT1A1 gene expression in human HuH7 cells after 48 hrs by micro-array analysis relative to control; assay type: functional
[12] = tested on: Huh-7; experiment: Upregulation of UGT2B15 gene expression in human HuH7 cells after 48 hrs by micro-array analysis relative to control; assay type: functional
[13] = tested on: Huh-7; experiment: Upregulation of UGT2B7 gene expression in human HuH7 cells after 48 hrs by micro-array analysis relative to control; assay type: functional
[14] = tested on: Huh-7; experiment: Upregulation of DNASE1 gene expression in human HuH7 cells after 48 hrs by micro-array analysis relative to control; assay type: functional
[15] = tested on: Huh-7; experiment: Upregulation of MUCDH1 gene expression in human HuH7 cells after 48 hrs by micro-array analysis relative to control; assay type: functional
[16] = tested on: Huh-7; experiment: Upregulation of UGT2B17 gene expression in human HuH7 cells after 48 hrs by micro-array analysis relative to control; assay type: functional
[17] = tested on: Huh-7; experiment: Downregulation of GIP3 gene expression in human HuH7 cells after 48 hrs by micro-array analysis relative to control; assay type: functional
[18] = tested on: Huh-7; experiment: Downregulation of TAGLN gene expression in human HuH7 cells after 48 hrs by micro-array analysis relative to control; assay type: functional
[19] = tested on: Huh-7; experiment: Downregulation of THBS1 gene expression in human HuH7 cells after 48 hrs by micro-array analysis relative to control; assay type: functional
[20] = tested on: Huh-7; experiment: Downregulation of IFI27 gene expression in human HuH7 cells after 48 hrs by micro-array analysis relative to control; assay type: functional
[21] = tested on: Huh-7; experiment: Downregulation of FSCN1 gene expression in human HuH7 cells after 48 hrs by micro-array analysis relative to control; assay type: functional
[22] = tested on: Huh-7; experiment: Downregulation of SOCS2 gene expression in human HuH7 cells after 48 hrs by micro-array analysis relative to control; assay type: functional

Structure (SMILES)	IC50 [1]	IC50 [2]	IC50 [3]	IC50 [4]	selectivity ratio [5]	selectivity ratio [6]	selectivity ratio [7]	further results
CCOc1ccc(NC(=O)c2c(N)n[nH]c2Nc2ccccc2)cc1	4.32 µM	21 µM	4.47 µM	67.8 µM	15.7	3.2	15.1	–
CCNc1[nH]nc(N)c1C(=O)Nc1ccc(OCC)cc1	27 µM	14.8 µM	14 µM	> 100 µM	> 3.7	> 6.8	> 7.2	–
CCOc1ccc(NC(=O)c2c(N)n[nH]c2NC23CC4CC(CC(C4)C2)C3)cc1	10.6 µM	13.2 µM	15.2 µM	81.2 µM	7.6	6.2	5.3	–
C=CCN/C(SC)=C(/C#N)C(=O)Nc1ccc(OCC)cc1	8.85 µM	21.8 µM	18.5 µM	> 100 µM	> 11.3	> 4.6	> 5.4	Activity [8]: Dose-dependent effect; Activity [9]: Dose-dependent effect
CCOc1ccc(-n2nnc3n[nH]c(NC45CC6CC(CC(C6)C4)C5)c3c2=O)cc1	23.2 µM	4.41 µM	15.6 µM	> 100 µM	> 4.3	> 22.7	> 6.4	–
CCOc1ccc(NC(=O)/C(C#N)=C(\NC)SC)cc1	5.78 µM	26.4 µM	9.94 µM	> 100 µM	> 17.3	> 3.8	> 10.1	Activity [8]: Dose-dependent effect; Activity [9]: Dose-dependent effect
C=CCNc1[nH]nc2nnn(-c3ccc(OCC)cc3)c(=O)c12	4.94 µM	13.3 µM	4.73 µM	> 100 µM	> 20.3	> 7.5	> 21.2	Activity [8]: Dose-dependent effect; Activity [9]: Dose-dependent effect; fold change (FC) [10]: >=3 - 6; fold change (FC) [11]: >=3 - 6; fold change (FC) [12]: >=3 - 6; fold change (FC) [13]: >=3 - 6; fold change (FC) [14]: >=3 - 6; fold change (FC) [15]: >=3 - 6; fold change (FC) [16]: >=3 - 6; fold change (FC) [17]: >4; fold change (FC) [18]: >4; fold change (FC) [19]: >4; fold change (FC) [20]: >4; fold change (FC) [21]: >4; fold change (FC) [22]: >4
CCOc1ccc(NC(=O)/C(C#N)=C(\Nc2ccccc2)SC)cc1	25.3 µM	49.3 µM	20.3 µM	> 100 µM	> 4	> 2	> 4.9	–
CCOc1ccc(-n2nnc3n[nH]c(NC)c3c2=O)cc1	7.01 µM	9.92 µM	12.4 µM	> 100 µM	> 14.3	> 10.1	> 8.1	Activity [8]: Dose-dependent effect; Activity [9]: Dose-dependent effect
CCOc1ccc(NC(=O)/C(C#N)=C(\NC23CC4CC(CC(C4)C2)C3)SC)cc1	10 µM	23.7 µM	17.6 µM	> 100 µM	> 10	> 4.2	> 5.7	–
CCN/C(SC)=C(/C#N)C(=O)Nc1ccc(OCC)cc1	16.4 µM	41.6 µM	9.89 µM	> 100 µM	> 6.1	> 2.4	> 10.1	–
COc1cccc2c1C(=O)c1c(O)c3c(c(O)c1C2=O)C[C@@](O)(C(=O)CO)C[C@@H]3O[C@H]1C[C@H](N)[C@H](O)[C@H](C)O1 [DOXORUBICIN]	5.43 µM	–	–	14 µM	–	–	–	–
C=CCNc1[nH]nc(N)c1C(=O)Nc1ccc(OCC)cc1	22 µM	30.8 µM	6.56 µM	> 100 µM	> 4.5	> 3.2	> 15.2	–
CCOc1ccc(NC(=O)c2c(N)n[nH]c2NC)cc1	21.8 µM	31 µM	7.9 µM	> 100 µM	> 4.6	> 3.2	> 12.7	–
CCNc1[nH]nc2nnn(-c3ccc(OCC)cc3)c(=O)c12	14.4 µM	16.1 µM	15.2 µM	> 100 µM	> 6.9	> 6.2	> 6.6	–
CCOc1ccc(NC(=O)CC#N)cc1	21.5 µM	43.9 µM	14.1 µM	> 100 µM	> 4.6	> 2.3	> 7.1	–
CCOc1ccc(-n2nnc3n[nH]c(Nc4ccccc4)c3c2=O)cc1	9.39 µM	13.1 µM	5.92 µM	> 100 µM	> 10.6	> 7.6	> 16.9	–
